Test results reported in the NIST ThermoML archive (doi:10.1021/acs.jced.5b00317).
Numbers after ± are expanded uncertainties.

Settings: 101 kPa, Liquid, Sing-around technique in a fixed-path interferometer

Question: Which speed of sound (313.15 K) does the source give for O [water] here?
Answer: 1529.2 ± 0.77 m/s

Question: And the speed of sound (318.15 K)?
Answer: 1536.8 ± 0.78 m/s
